According to patent publication US5008419A, “Novel platinum complex” (SS Pharmaceutical Co., Ltd., priority 1988, dated 1991):

What was measured:
L1210 leukemia cells = assay: Antitumor activity against L1210 leukemia in CDF1 mice (increase life span, survived ratio); type: in vivo, CDF1 male mice; conditions: for ILS (increase life span) / Survived ratio: i.p., once a day for 5 days; for ILS50 (50% increase life span dose): mouse, in vivo, ip, 43200 min; for Survived ratio: 30 days observation
Method: CDF1 male mice (age: 6 weeks) consisting of 6 per each group were used to the test. 1×10^5 L1210 leukemia cells were intraperitoneally inoculated into each mouse. Test compounds dissolved in a solution of 0.5% CMC-Na in physiological saline were intraperitoneally administered to mice once a day for 5 consecutive days from the next day of the inoculation. A 0.5% CMC-Na solution in physiological saline was administered to the control group. […] All of these compounds are known compounds and Comparative Compounds a-c were disclosed in U.S. Pat. No. 4,169,846.
Observation was continued for consecutive 30 days after the administration. Increase life span (ILS) was determined according to the following equation: […]
wherein T is the mean survival days of the treated groups, and C is the mean survival days of the control groups.
(§1) Therapeutic index of compounds of this invention was determined according to the following equation. [formula]

50% lethal dose (LD50) = conditions: in vivo
Method: as §1

Water solubility = type: physicochemical

Row | Molecule | ILS (increase life span) (L1210 leukemia cells; 0.5 mg/kg) [%] | ILS (increase life span) (L1210 leukemia cells; 1.0 mg/kg) [%] | ILS (increase life span) (L1210 leukemia cells; 2.0 mg/kg) [%] | ILS (increase life span) (L1210 leukemia cells; 4.0 mg/kg) [%] | ILS50 (50% increase life span dose) (L1210 leukemia cells) [mg/kg] | ILS (increase life span) (L1210 leukemia cells; 8.0 mg/kg) | ILS (increase life span) (L1210 leukemia cells; 16.0 mg/kg) | ILS (increase life span) (L1210 leukemia cells; 32.0 mg/kg) | LD50 (50% lethal dose) (50% lethal dose (LD50)) [mg/kg] | Survived ratio (L1210 leukemia cells; 2.0 mg/kg) [%] | Survived ratio (L1210 leukemia cells; 4.0 mg/kg) [%] | Survived ratio (L1210 leukemia cells; 8.0 mg/kg) [%] | Survived ratio (L1210 leukemia cells; 16.0 mg/kg) [%] | Survived ratio (L1210 leukemia cells; 32.0 mg/kg) [%] | Water solubility (Water solubility) [µg/mL] | ILS (increase life span) (L1210 leukemia cells; 64.0 mg/kg) | Survived ratio (L1210 leukemia cells; 64.0 mg/kg) [%] | ILS (increase life span) (L1210 leukemia cells; 128.0 mg/kg) [%] | Survived ratio (L1210 leukemia cells; 128.0 mg/kg) [%]
1 | N.N.[Cl][Pt][Cl] [Cisplatin] | 19 | 33 | 75 | 88 | 1.3 | – | – | – | – | – | – | – | – | – | – | – | – | – | –
2 | CC1C(=O)[O][Pt]2([NH]C3CCCCC3[NH]2)[O]C1=O (racemic) [Comparative Compound b, (trans-dl-1,2-diaminocyclohexane)methylmalonatoplatinum (II)] | – | – | – | 17 | 14.9 | 27% | 43% | 79% | 312.6 | – | – | – | – | – | – | – | – | – | –
3 | (trans-dl-1,2-diaminocyclohexane) diethylmalonatoplatinum (II) [Compound No. 2] | – | – | 43 | 61 | 2.7 | above 135% | above 124% | above 168% | 140.0 | 0 | 0 | 33 | 17 | 33 | 10000 | – | – | – | –
4 | (trans-dl-1,2-diaminocyclohexane) dimethylmalonatoplatinum (II) [Compound No. 1] | – | – | 40 | 49 | 3.4 | above 136% | 112% | 130% | 140.0 | 0 | 0 | 17 | 0 | 0 | 8000 | – | – | – | –
5 | N.N.O=C([O-])C1(C(=O)[O-])CCC1.[Pt+2] [Carboplatin] | – | – | – | – | 31.2 | 27% | 29% | 43% | 200.0 | – | – | 0 | 0 | 0 | – | 70% | 0 | 25 | 0
6 | (trans-dl-1,2-diaminocyclohexane)-malonatoplatinum (II) [Comparative Compound a] | – | – | – | 35 | 7.1 | 49% | 82% | 94% | 244.9 | – | 0 | 0 | 0 | 17 | 500 | above 108% | 17 | – | –
7 | CCC1C(=O)[O][Pt]2([NH]C3CCCCC3[NH]2)[O]C1=O (racemic) [Comparative Compound c, (trans-dl-1,2-diaminocyclohexane)ethylmalonatoplatinum (II)] | – | – | – | 27 | 14.2 | 31% | 52% | 69% | 244.9 | – | – | – | – | – | – | – | – | – | –
